Data reported in patent US8247211B2, “Glycopeptide antibiotics” (American Cyanamid Company, priority 2001, dated 2012).
≈ marks a conversion by molar mass, not a printed value.

Experiments:
Test in all cases: In vitro antibacterial evaluation: minimum inhibitory concentration (MIC), broth dilution method
Format in all cases: cell-based
Streptococcus sp. = tested on: Streptococcus sp.
In short: (§1)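 Following NCCLS approved standard M7-A2, compounds are serially diluted from 64 to 0.06 μg/mL in Muller-Hinton II […] and inoculated at 5×10^5 CFU/mL; the MIC is the minimum concentration at which growth is inhibited.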

Escherichia coli = tested on: Escherichia coli
In short: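 NCCLS M7-A2 broth dilution; Muller-Hinton II […]; 5×10^5 CFU/mL; 64-0.06 μg/mL. MIC = lowest concentration with no growth.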

Enterococcus sp. = tested on: Enterococcus sp.
In short: as §1

Staphylococcus sp. = conditions: broth dilution, 18 hours at 35° C.
In short: as §1

[1] = broth dilution, inoculum 5×10^5 CFU/mL, 18 hours at 35° C.

CSc1ccc(C2OCC3OC(OC4C(CO)OC(Oc5ccc(CC6NC(=O)C(C(C)c7ccccc7)NC(=O)CNC(=O)C(CO)NC(=O)C(C(O)C7CNC(=N)N7C7OC(CO)C(O)C(O)C7O)NC(=O)C(C(O)C7CNC(=N)N7)NC6=O)cc5)C(O)C4O)C(O)C(O)C3O2)cc1[N+](=O)[O-] (stereo not drawn) [Example 168, Cyclo[glycyl-β-methylphenylalanyl-O-[4-O-[4,6-O-[4-(methylthio)-3-nitrobenzylidene]hexopyranosyl]hexopyranosyl]tyrosyl-3-(2-iminoimidazolidin-4-yl)seryl-3-(3-hexopyranosyl-2-iminoimidazolidin-4-yl)serylseryl]]
MIC Streptococcus agalactiae (GC 4564) (Streptococcus sp.; [1]): <0.12 µg/mL
MIC Streptococcus pneumoniae (ATCC 6301) (Streptococcus sp.; [1]): <0.12 µg/mL
MIC Streptococcus pneumoniae (GC 1894) (Streptococcus sp.; [1]): <0.12 µg/mL
MIC Streptococcus pneumoniae (GC 4565) (Streptococcus sp.; [1]): <0.12 µg/mL
MIC Streptococcus pyogenes (GC 4563) (Streptococcus sp.; [1]): 0.5 µg/mL (≈ 0.339 µM)
MIC Streptococcus pneumoniae (ATCC 6301) (Streptococcus sp.; strain ATCC 6301): <0.12 µg/mL
MIC Streptococcus pneumoniae (GC 1894) (Streptococcus sp.; strain GC 1894): <0.12 µg/mL
MIC Streptococcus pyogenes (GC 4563) (Streptococcus sp.; strain GC 4563): 0.5 µg/mL (≈ 0.339 µM)
MIC Streptococcus agalactiae (GC 4564) (Streptococcus sp.; strain GC 4564): <0.12 µg/mL
MIC Streptococcus pneumoniae (GC 4565) (Streptococcus sp.; strain GC 4565): <0.12 µg/mL
MIC Escherichia coli (ATCC 25922) (Escherichia coli; strain ATCC 25922): 64 µg/mL (≈ 43.4 µM)
MIC Escherichia coli (GC 4559) (Escherichia coli; strain GC 4559): 16 µg/mL (≈ 10.9 µM)
MIC Escherichi coli (GC 4560) (Escherichia coli; strain GC 4560): 0.5 µg/mL (≈ 0.339 µM)
MIC Enterococcus avium (GC 4558) (Enterococcus sp.; [1]): 2 µg/mL (≈ 1.36 µM)
MIC Enterococcus faecalis (ATCC 29212) (Enterococcus sp.; [1]): 2 µg/mL (≈ 1.36 µM)
MIC Enterococcus faecalis (GC 2242) (Enterococcus sp.; [1]): 2 µg/mL (≈ 1.36 µM)
MIC Enterococcus faecalis (GC 2691) (Enterococcus sp.; [1]): 2 µg/mL (≈ 1.36 µM)
MIC Enterococcus faecalis (GC 3059) (Enterococcus sp.; [1]): 2 µg/mL (≈ 1.36 µM)
MIC Enterococcus faecalis (GC 4552) (Enterococcus sp.; [1]): 2 µg/mL (≈ 1.36 µM)
MIC Enterococcus faecalis (GC 4553) (Enterococcus sp.; [1]): 2 µg/mL (≈ 1.36 µM)
MIC Enterococcus faecalis (GC 4554) (Enterococcus sp.; [1]): 2 µg/mL (≈ 1.36 µM)
MIC Enterococcus faecalis (GC 6189) (Enterococcus sp.; [1]): 2 µg/mL (≈ 1.36 µM)
MIC Enterococcus faecium (GC 2243) (Enterococcus sp.; [1]): 2 µg/mL (≈ 1.36 µM)
MIC Enterococcus faecium (GC 4556) (Enterococcus sp.; [1]): 2 µg/mL (≈ 1.36 µM)
MIC Enterococcus faecium (GC 4557) (Enterococcus sp.; [1]): 1 µg/mL (≈ 0.678 µM)
MIC Enterococcus faecalis (ATCC 29212) (Enterococcus sp.; strain ATCC 29212): 2 µg/mL (≈ 1.36 µM)
MIC Enterococcus faecalis (GC 2242) (Enterococcus sp.; strain GC 2242): 2 µg/mL (≈ 1.36 µM)
MIC Enterococcus faecium (GC 2243) (Enterococcus sp.; strain GC 2243): 2 µg/mL (≈ 1.36 µM)
MIC Enterococcus faecalis (GC 2691) (Enterococcus sp.; strain GC 2691): 2 µg/mL (≈ 1.36 µM)
MIC Enterococcus faecalis (GC 3059) (Enterococcus sp.; strain GC 3059): 2 µg/mL (≈ 1.36 µM)
MIC Enterococcus faecalis (GC 4552) (Enterococcus sp.; strain GC 4552): 2 µg/mL (≈ 1.36 µM)
MIC Enterococcus faecalis (GC 4553) (Enterococcus sp.; strain GC 4553): 2 µg/mL (≈ 1.36 µM)
MIC Enterococcus faecalis (GC 4554) (Enterococcus sp.; strain GC 4554): 2 µg/mL (≈ 1.36 µM)
MIC Enterococcus faecium (GC 4556) (Enterococcus sp.; strain GC 4556): 2 µg/mL (≈ 1.36 µM)
MIC Enterococcus faecium (GC 4557) (Enterococcus sp.; strain GC 4557): 1 µg/mL (≈ 0.678 µM)
MIC Enterococcus avium (GC 4558) (Enterococcus sp.; strain GC 4558): 2 µg/mL (≈ 1.36 µM)
MIC Enterococcus faecalis (GC 6189) (Enterococcus sp.; strain GC 6189): 2 µg/mL (≈ 1.36 µM)
MIC Coagulase Negative Staphylococcus (GC 4547) (Staphylococcus sp.; 5×10^5 CFU/mL): 2 µg/mL (≈ 1.36 µM)
MIC Coagulase Negative Staphylococcus (GC 4548) (Staphylococcus sp.; 5×10^5 CFU/mL): 0.5 µg/mL (≈ 0.339 µM)
MIC Coagulase Negative Staphylococcus (GC 4549) (Staphylococcus sp.; 5×10^5 CFU/mL): 0.5 µg/mL (≈ 0.339 µM)
MIC Coagulase Negative Staphylococcus (GC 4551) (Staphylococcus sp.; 5×10^5 CFU/mL): 1 µg/mL (≈ 0.678 µM)
MIC Staphylococcus aureus (ATCC 29213) (Staphylococcus sp.; 5×10^5 CFU/mL): 1 µg/mL (≈ 0.678 µM)
MIC Staphylococcus aureus (GC 1131) (Staphylococcus sp.; 5×10^5 CFU/mL): 1 µg/mL (≈ 0.678 µM)
MIC Staphylococcus aureus (GC 3051) (Staphylococcus sp.; 5×10^5 CFU/mL): 1 µg/mL (≈ 0.678 µM)
MIC Staphylococcus aureus (GC 3053) (Staphylococcus sp.; 5×10^5 CFU/mL): 1 µg/mL (≈ 0.678 µM)
MIC Staphylococcus aureus (GC 4541) (Staphylococcus sp.; 5×10^5 CFU/mL): 1 µg/mL (≈ 0.678 µM)
MIC Staphylococcus aureus (GC 4542) (Staphylococcus sp.; 5×10^5 CFU/mL): 1 µg/mL (≈ 0.678 µM)
MIC Staphylococcus aureus (GC 4544) (Staphylococcus sp.; 5×10^5 CFU/mL): 2 µg/mL (≈ 1.36 µM)
MIC Staphylococcus aureus (GC 4545) (Staphylococcus sp.; 5×10^5 CFU/mL): 1 µg/mL (≈ 0.678 µM)
MIC Staphylococcus aureus-SMITH (GC 4543) (Staphylococcus sp.; 5×10^5 CFU/mL): 1 µg/mL (≈ 0.678 µM)
MIC Staphylococcus haemolyticus (GC 4546) (Staphylococcus sp.; 5×10^5 CFU/mL): 0.5 µg/mL (≈ 0.339 µM)
MIC Staphylococcus aureus (ATCC 29213) (Staphylococcus sp.; strain ATCC 29213): 1 µg/mL (≈ 0.678 µM)
MIC Staphylococcus aureus (GC 1131) (Staphylococcus sp.; strain GC 1131): 1 µg/mL (≈ 0.678 µM)
MIC Staphylococcus aureus (GC 3051) (Staphylococcus sp.; strain GC 3051): 1 µg/mL (≈ 0.678 µM)
MIC Staphylococcus aureus (GC 3053) (Staphylococcus sp.; strain GC 3053): 1 µg/mL (≈ 0.678 µM)
MIC Staphylococcus aureus (GC 4541) (Staphylococcus sp.; strain GC 4541): 1 µg/mL (≈ 0.678 µM)
MIC Staphylococcus aureus (GC 4542) (Staphylococcus sp.; strain GC 4542): 1 µg/mL (≈ 0.678 µM)
MIC Staphylococcus aureus (GC 4544) (Staphylococcus sp.; strain GC 4544): 2 µg/mL (≈ 1.36 µM)
MIC Staphylococcus aureus (GC 4545) (Staphylococcus sp.; strain GC 4545): 1 µg/mL (≈ 0.678 µM)
